Assay results reported in patent EP2241312A1, “Use of compositions comprising urea for treating microbial infections” (ISDIN S.A., priority 2009, dated 2010).
Values joined by “and” are separate entries in the source; they are usually repeats but may differ in a detail not shown here. Equal entries are not always repeated.

Tested on: LL-37
Test: LL-37 expression in confluent human keratinocytes, time course and urea concentration series (real time PCR)
Assay type: cell-based
Conditions: for fold induction at 1000 µM / fold induction at 5000 µM / fold induction at 20000 µM / fold induction at 50000 µM / fold induction at 100000 µM / fold induction at 10000 µM: Homo sapiens, Keratinocyte; for fold induction at 20000 µM: 20mM urea
Procedure: Primary human epidermal keratinocytes were prepared from neonatal foreskin as described previously (Grether-Beck et al, 1996, 2000, 2003, 2005, 2008) and maintained in culture under serum free conditions using a defined keratinocyte growth medium Keratinocyte SFM (Invitrogen, Heidelberg, Germany) supplemented with bovine pituitary extract (Invitrogen, Heidelberg, Germany) and recombinant epidermal growth factor (Invitrogen, Heidelberg, Germany). Cells were propagated up to passage 2 or 3 at 37°C and 5 % CO2 (Grether-Beck et al, 1996, 2000, 2003, 2005, 2008). For induction of differentiation NHEKs were seeded in 6well plates and grown up to confluence.
For assessment of gene expression total RNA was extracted from frozen biopsies (Ø 4 mm) and gene expression measured by semiquantitative RT-PCR. For isolation of RNA from frozen skin biopsies, 600 µl lysis buffer from PeqGold Total RNA Kit (PeqLab, Erlangen, Germany) were added and the samples were disrupted in a MixerMill MM300 (Retsch, Haan, Germany) three times for 3 min with 30 Hz. 50 ng total RNA were used for cDNA synthesis. PCR reactions were performed in an Opticon 1 (MJ Research, Waltham, MA, USA) using Sybr QPCR Supermix w. Rox (Invitrogen, Karlsruhe, Germany). PCR conditions were as follows: activation of hot start taq polymerase 94° C 15 minutes; denaturation 95° C, 20 seconds; annealing, 55° C, 20 seconds; extension, 72° C 30 seconds. Each sample was subjected to PCR in double using the appropriate primer pairs for 45-50 cycles. For comparison of relative expression in real time PCR control cells and treated cells the 2 (-della delta C(T)) method was used (Livak KJ, and Schmittgen TD. Analysis of relative gene expression data using real time quantitative PCR and the 2 (-delta delta C(T)) method. Methods 2001: 25: 402 - 408). mRNA expression of the genes of interest was shown as fold induction as compared to untreated skin samples of the same volunteer. Table 1: Primer pairs for real time PCR
For determination of relative gene expression in real time PCT the 2(-delta delta C(T))-method was used as described in Livak and Schmittgen (2001) "Analysis of relative gene expression data using real time quantitative PCR and the 2 (-delta delta C(T))-method" Methods 25: 401-408. For statistical analysis, the experimental data were analyzed using the Wilcoxon signed-rank test. […]

Question: What does the source list for `NC(N)=O` [urea]?
Answer: Expression of LL-37 (24h, 1mM urea, 1440 min, 1000 µM): 1.9000; Expression of LL-37 (24h, 5mM urea, 1440 min, 5000 µM): 1.7000; Expression of LL-37 (24h, 10mM urea, 1440 min, 10000 µM): 1.7000; Expression of LL-37 (48h, 1mM urea, 2880 min, 1000 µM): 3.0000; Expression of LL-37 (48h, 5mM urea, 2880 min, 5000 µM): 2.2000 and 1.9000; Expression of LL-37 (72h, 1mM urea, 4320 min, 1000 µM): 10.3000 and 11.4000; Expression of LL-37 (72h, 5mM urea, 4320 min, 5000 µM): 7.1000; Expression of LL-37 (72h, 10mM urea, 4320 min, 10000 µM): 1.7000 and 1.7300; Expression of LL-37 (72h, 50mM urea, 4320 min, 50000 µM): 0.9000; Expression of LL-37 (96h, 1mM urea, 5760 min, 1000 µM): 4.7000 and 5.5000; Expression of LL-37 (96h, 5mM urea, 5760 min, 5000 µM): 4.2000; Expression of LL-37 (96h, 10mM urea, 5760 min, 10000 µM): 3.4000; Expression of LL-37 (96h, 100mM urea, 5760 min, 100000 µM): 1.0000; fold induction at 1000 µM (24 h, 1mM urea): 1.8; fold induction at 5000 µM (24 h, 5mM urea): 1.4; fold induction at 20000 µM (24 h): 1.2; fold induction at 50000 µM (24 h, 50mM urea): 1.3; fold induction at 100000 µM (24 h, 100mM urea): 1.2; fold induction at 1000 µM (48 h, 1mM urea): 3.2; fold induction at 5000 µM (48 h, 5mM urea): 2.1; fold induction at 10000 µM (48 h, 10mM urea): 1.5; fold induction at 20000 µM (48 h): 1.2; fold induction at 50000 µM (48 h, 50mM urea): 1.2; fold induction at 100000 µM (48 h, 100mM urea): 0.8; fold induction at 1000 µM (72 h, 1mM urea): 11.2; fold induction at 5000 µM (72 h, 5mM urea): 7.2; fold induction at 10000 µM (72 h, 10mM urea): 1.8; fold induction at 20000 µM (72 h): 1.6; fold induction at 50000 µM (72 h, 50mM urea): 0.8; fold induction at 100000 µM (72 h, 100mM urea): 0.8; fold induction at 1000 µM (96 h, 1mM urea): 5; fold induction at 5000 µM (96 h, 5mM urea): 3.9; fold induction at 10000 µM (96 h, 10mM urea): 3.2; fold induction at 20000 µM (96 h): 1.6; fold induction at 50000 µM (96 h, 50mM urea): 1.3; fold induction at 100000 µM (96 h, 100mM urea): 1.1
